# Results published in patent US20050187581A1, “Methods of treating disorders with electric fields” (priority 2000, published 2005).
# Where two headings read alike, the source gives them in different places.
# Tests used:
# [1] = Antioxidant activity (AOA) of plasma from AAPH-treated rats, against BHP; format: in vivo, Sprague-Dawley rats; settings: for Plasma antioxidant activity against BHP: ascorbic acid 500 mg/kg p.o., SOD 50 mg/kg s.c., mean ± SEM, n=8
# Procedure: (§1) To examine the effects of EF effect during oxidative stress, rats were divided into five groups (n=8) as follows: 1) non-treatment; 2) treatment with the oxidizing agent, AAPH, on experimental day seven; 3) co-treatment with EF and AAPH; 4) co-treatment with AAPH and the anti-oxidant agent, ascorbic acid; or 5) co-treatment with AAPH and superoxide dismutase. Rats of Group 3 were exposed to a sine wave of 50 Hz, 17,500 V/m intensity, 15 minutes per day for one week. In addition, Groups 1, 2, 4 and 5 were sham EF exposed, in which were maintained for an equal period of time inside the exposure cage with the system turned off. On the seventh day after EF was started, Group 3 was exposed to EF just after administration of AAPH (10 mg/kg, i.p.). In Group 4, ascorbic acid (500 mg/kg, p.o.) was administered 60 minutes before of the AAPH treatment. Superoxide dismutase (50 mg/kg, s.c., Nacalai Tesque, Tokyo, Japan) was administered to Group 5 just before the AAPH treatment. Under pentobarbital (45 mg/kg, i.p.) anesthesia, blood was collected from the abdominal cava vein 90 minutes later after AAPH administration, and the plasma was separated by centrifugation at 1,670×g for 10 minutes at 4° C. The plasma samples were stored at −80° C. until tested.
# (§2) Plasma AOA was measured by a method using a derivative of methylene blue. Briefly, 0.1 ml plasma or a solution of ascorbic acid (Wako Ltd., Osaka, Japan) and 0.65 ml distilled water was added into 1.5 ml of Good's buffer adjusted to pH 5.8 (Good et al., 1966), including 1% triton X-100 supplemented with 3,7-bis-demethylamino-10-methyl carbamoyl phenothiazine (MCDP, 40 μM, KYOWA MEDEX Co., Ltd., Tokyo, Japan) and hemoglobin (67.5 μg/ml). After incubation for one minute at 37° C., 0.25 ml of tert-butylhydroperoxide (84 μM, BHP, Aldrich) as an alkoxyl radical initiator was added and reacted for 10 minutes at 37° C. In addition, AOA measurements in a reaction using AAPH (50 mM) as a peroxy radical initiator were conducted in Good's buffer without hemoglobin for 20 minutes at 37° C. A radical initiator not trapped by an antioxidant in each plasma sample will oxidize MCDP. The absorbance of the resultant blue color was subsequently measured by absorbance at 675 nm using a spectrophotometer (150-20, Hitachi). The equation to calculate AOA was the following: AOA (%)=(1−Abs1/Abs2)×100, where Abs1 is the absorbance of the plasma sample, and Abs2 is a value of the blank.
# [2] = Antioxidant activity (AOA) of plasma from AAPH-treated rats, against AAPH; format: in vivo, Sprague-Dawley rats; settings: for AOAAAPH: ascorbic acid 500 mg/kg p.o., SOD 50 mg/kg s.c., mean ± SEM, n=8
# Procedure: as §1, §2
# AAPH-treated rats = test: Plasma lipid peroxide (TBARS) levels in AAPH-treated rats; format: in vivo, Sprague-Dawley rats; settings: for Plasma levels of lipid peroxide compared to the sham EF-exposed group: AAPH-treated rats, P<0.05 (ascorbic acid), P<0.01 (superoxide dismutase); for Malondialdehyde concentration: plasma lipid peroxide, AAPH 10 mg/kg i.p., ascorbic acid 500 mg/kg p.o., SOD 50 mg/kg s.c., mean ± SEM, n=8
# Procedure: as §1
# Thiobarbituric acid reactive substance (TBARS), as an indicator of the plasma concentration of lipid peroxide, was measured using a commercialized kit (Lipid peroxide-test Wako, Wako Ltd., Osaka, Japan).
# [3] = biological target: T1, human calcium receptor protein (HuPCaR) (Homo sapiens, UniProt P41180); test: FURA2 ratio fluorimetry of HuPCaR cells on stepwise additions of extracellular CaCl2; format: cell-based
# T1 construct: expressed in transfected cells; host or cells: HEK (human embryonic kidney) cells, stably transfected
# T1 sequence (P41180 20-1078): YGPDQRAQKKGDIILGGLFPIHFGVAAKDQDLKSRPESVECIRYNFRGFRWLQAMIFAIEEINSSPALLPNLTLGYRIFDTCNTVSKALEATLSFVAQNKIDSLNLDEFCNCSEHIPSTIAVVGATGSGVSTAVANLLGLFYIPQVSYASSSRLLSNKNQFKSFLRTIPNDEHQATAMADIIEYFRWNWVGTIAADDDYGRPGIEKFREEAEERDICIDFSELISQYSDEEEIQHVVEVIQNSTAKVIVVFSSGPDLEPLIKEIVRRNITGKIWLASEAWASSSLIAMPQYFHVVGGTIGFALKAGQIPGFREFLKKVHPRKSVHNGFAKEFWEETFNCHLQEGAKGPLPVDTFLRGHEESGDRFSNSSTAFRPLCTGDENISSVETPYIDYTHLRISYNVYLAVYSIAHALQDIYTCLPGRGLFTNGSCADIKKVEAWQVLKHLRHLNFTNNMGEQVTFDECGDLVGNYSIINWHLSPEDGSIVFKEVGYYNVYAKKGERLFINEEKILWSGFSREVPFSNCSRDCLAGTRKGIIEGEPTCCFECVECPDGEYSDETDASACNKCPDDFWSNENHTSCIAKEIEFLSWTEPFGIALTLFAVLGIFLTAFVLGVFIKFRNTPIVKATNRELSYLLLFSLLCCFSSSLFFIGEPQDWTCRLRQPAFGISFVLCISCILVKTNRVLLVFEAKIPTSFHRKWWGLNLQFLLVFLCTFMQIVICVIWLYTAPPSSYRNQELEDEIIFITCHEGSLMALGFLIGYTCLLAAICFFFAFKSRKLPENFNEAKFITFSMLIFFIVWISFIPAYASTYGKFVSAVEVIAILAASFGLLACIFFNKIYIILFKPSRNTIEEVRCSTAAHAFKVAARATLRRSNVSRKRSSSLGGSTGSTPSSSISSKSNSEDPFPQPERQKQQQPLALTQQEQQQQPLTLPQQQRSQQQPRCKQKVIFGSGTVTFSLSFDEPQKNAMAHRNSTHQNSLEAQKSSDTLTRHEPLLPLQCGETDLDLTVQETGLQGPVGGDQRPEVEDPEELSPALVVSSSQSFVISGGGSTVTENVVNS
# Procedure: In selected experiments, ionomycin (1 micromolar final concentration-stock dissolved in dimethyl sulfoxide) was added in order to quantify differences in FURA2 ratio fluorescence. Ionomycin was added to the cells to obtain a maximal fluorescence signal from the FURA2 for purposes of quantification. FIG. 15 outlines the experimental system that was utilized to obtain the data described below. Cultured HEK or HuPCaR cells were loaded with FURA2 after their growth on plastic tissue culture dishes, scraped and rinsed in buffer to create a cell suspension that was then divided into various aliquots. Selected aliquots were exposed to EF in the EF exposure device. Subsequent to either EF exposure or sham control (no EF) treatments, aliquots of cells were used for standard ratio imaging fluorimetry analysis to measure changes in intracellular Ca^2+ concentrations. Initially, measurements were obtained of the baseline intracellular Ca^2+ concentration for each aliquot of cells as shown by the bracket marked #1 in FIG. 15. […] In an effort to obtain more quantitative data from individual aliquots within an individual experiment as well as comparison of data from different experiments, we incorporated the use of ionomycin as shown in FIG. 13 to determine the maximal FURA2 signal achievable within each aliquot of cells. […]
# [4] = Antioxidant activity (AOA) of rat plasma, ascorbic acid added in the test tube, BHP as radical initiator; format: biochemical, Sprague-Dawley rats
# Procedure: (§3) To examine the effects of EF on unstressed rats, rats were exposed to a sine wave of 50 Hz, 17,500 V/m intensity, 15 minutes per day for 1 one week. Each rat in three groups (n=5) was individually treated with an EF or a sham EF, or was not treated. Rats exposed to sham EF were maintained for an equal period of time inside the exposure cage with the system turned off. Under pentobarbital (45 mg/kg, i.p.) anesthesia, blood was collected from the abdominal cava vein after EF exposure on experimental day seven, and the plasma was separated by centrifugation at 1,670×g for 10 minutes at 4° C. The plasma samples were stored at −80° C. until tested.
# (§4) Plasma AOA was measured by a method using a derivative of methylene blue. Briefly, 0.1 ml plasma or a solution of ascorbic acid (Wako Ltd., Osaka, Japan) and 0.65 ml distilled water was added into 1.5 ml of Good's buffer adjusted to pH 5.8 (Good et al., 1966), including 1% triton X-100 supplemented with 3,7-bis-demethylamino-10-methyl carbamoyl phenothiazine (MCDP, 40 μM, KYOWA MEDEX Co., Ltd., Tokyo, Japan) and hemoglobin (67.5 μg/ml). […] The absorbance of the resultant blue color was subsequently measured by absorbance at 675 nm using a spectrophotometer (150-20, Hitachi). The equation to calculate AOA was the following: AOA (%)=(1−Abs1/Abs2)×100, where Abs1 is the absorbance of the plasma sample, and Abs2 is a value of the blank.
# [5] = Antioxidant activity (AOA) of rat plasma, ascorbic acid added in the test tube, AAPH as radical initiator; format: biochemical, Sprague-Dawley rats
# Procedure: as §3, §4
# mouse splenocytes = test: [Ca^2+]c-high cells in lectin-stimulated mouse splenocytes, fluo-3 flow cytometry; format: cell-based, BALB/c mice; settings: 5 μg/ml PHA, 1 mM CaCl2; EF-exposed and unexposed cells
# Procedure: In order to avoid contact of the cells and the lower electrode, polycarbonate membrane (Isopore, MILLIPORE, MA USA) was placed between the dish and the insert. Approximately 1 ml of the cell suspension was poured into culture well/space and covered with a lid.
# Female BALB/c mice, 4-7 wk old obtained from CLEA Inc. (Tokyo, Japan) maintained in a conventional animal house equipped with clean air-filtering device were splenectomized under anesthesia, and cell suspensions of splenocytes were prepared. To examine cell viability, the cells were cultivated in Dulbecco's modified Eagle's medium (SIGMA, MO, USA) supplemented with 10% fetal bovine serum (FSB). The cells were maintained in Hank's balanced salt solution (HBSS) (SIGMA, MO, USA) during examination for [Ca^2+]c which was carried out within 4 hr after cell preparation. Cells were stored at 4 degree C. prior to use.
# Splenocytes (10^6 cells/ml) were incubated for 20 min at 37 degrees C. in HBSS containing 2.5 μM fluo-3-acetoxylmethyl (Molecular Probes, USA) [Vandenberghe et al., 1990]. The cell suspension was then diluted 5 times with HBSS containing 1% FBS, incubated for 40 min at 37 degrees C., washed 3 times with assay buffer, and the cells were then suspended in the assay buffer at a concentration of 1×10^6/ml. Throughout the cell preparation, the cell suspensions were mixed gently.
# Considering the reported synergistic interaction between EMF and mitogen (Walleczek and Liburdy, 1990), concanavalin-A (Con-A) (Seikagaku Co., Tokyo, Japan) and phytohemaglutinin (PHA) (SIGMA, MO, USA) were used.
# Taking into account the results of the viability test for exposed murine splenocytes earlier assayed, we chose to use the optimum culture and exposure conditions (60 Hz, 6 μA/cm^2 EF) in carrying out the following five experiments: • (1) cells suspended in HEPES-buffered saline (BS)+1 mM CaCl2 were exposed to EF for a total of 40 min, and 12.5 μg/ml of Con-A was added after the first 8 min of exposure. The control groups consisted of EF-unexposed cells containing Con-A, and EF-exposed cells without Con-A. Percent [Ca^2+]c-high cells was checked at certain exposure points; • (2) cells in HEPES-BS+1 mM CaCl2 were exposed for a total of 12 min, and different concentrations (1 ng-12.5 μg/ml) of Con-A were added after the first 4 min of exposure. The control group was essentially the same as that of the experimental group but without EF-exposure; • (3) cells in HEPES-BS+1 mM CaCl2 were exposed for a total of 8 min, and 5 μg/ml of PHA was added after the first 4 min of exposure. The control groups consisted of EF-unexposed cells containing PHA, and EF-exposed cells without PHA; • (4) cells suspended in HEPES-BS without CaCl2 were exposed for a total of 12 min, and different concentrations (1 ng-5 μg/mil) of Con-A were added after the first 4 min of exposure. The control group was essentially the same as the experimental group but without EF exposure; and • (5) to evaluate the persistent effect of EF exposure, cells suspended in HEPES-BS+[…] were exposed for a total of 4 min, after which different concentrations (0.025-12.5 μg/ml) of Con-A were added, and the generation of [Ca^2+]c-high cells for the next 8 min without EF exposure was monitored with flow cytometry. The control was essentially the same as the experimental group but without any EF-exposure. Statistical Analysis
# [6] = added to plasma of the non-treatment group, P<0.01
# [7] = ascorbic acid 440 ng/ml added to plasma of non-treatment group, mean ± SEM, n=5
compound,measurement,setting,value
superoxide dismutase [SOD],Plasma antioxidant activity against BHP,[1]; AAPH-treated rats,78.0 ± 2.1%
same,Plasma AOA compared to the sham EF-exposed group,[2]; AAPH-treated rats,not different
same,Plasma AOA compared to the non-treatment group,"[2]; AAPH-treated rats, P<0.05",significantly suppressed
same,AOAAAPH,[2]; AAPH-treated rats,22.1 ± 2.5%
same,Plasma levels of lipid peroxide compared to the sham EF-exposed group,AAPH-treated rats,lower
same,Malondialdehyde concentration,AAPH-treated rats,1.139 ± 0.10 nmol/mL
"[Ca+2].[Cl-].[Cl-] [Ca^2+, CaCl2]",EC50,"[3]; FURA2 response method of Quinn et al., read-out: EC50 value for Ca^2+ derived using the method outlined in FIG. 20",3.5 mM
same,EC50,"[3]; calculated from Na+/Ca2+ ratio midpoint 36.6, Standard Experimental Buffer of 125 mM NaCl, FURA2 baseline, read-out: EC50 value for Ca",3.5 mM
"O=C1O[C@H]([C@@H](O)CO)C(O)=C1O [Ascorbic acid, ascorbic acid]",AOA against BHP compared to the other four groups,"[1]; AAPH-treated rats, P<0.01",increase
same,Plasma antioxidant activity against BHP,[1]; AAPH-treated rats,87.5 ± 0.3 %
same,Plasma AOA compared to the other four groups,"[2]; AAPH-treated rats, P<0.01",significantly higher
same,AOAAAPH,[2]; AAPH-treated rats,46.3 ± 3.2 %
same,Plasma levels of lipid peroxide compared to the sham EF-exposed group,AAPH-treated rats,lower
same,Malondialdehyde concentration,AAPH-treated rats,1.509 ± 0.05 nmol/mL
same,AOA of plasma against BHP after addition of ascorbic acid,[4]; [6],significantly elevated
same,AOABHP,[4]; [7],87.7 ± 0.3 %
same,AOA of plasma against AAPH after addition of ascorbic acid,[5]; [6],significantly elevated
same,AOAAAPH,[5]; [7],62.0 ± 3.8 %
"CC(C)(N=NC(C)(C)C(=N)N)C(=N)N.Cl.Cl [AAPH, 2,2′-azobis(2-amidinopropane)dihydrochloride]",Change in plasma AOA against BHP in rats treated with AAPH,[1]; AAPH 10 mg/kg i.p.,did not show any changes
same,Change in plasma AOA against AAPH in rats treated with AAPH,[2]; AAPH 10 mg/kg i.p.,suppression
phytohemaglutinin [PHA],[Ca^2+]c-high cells,mouse splenocytes,significant increases
